# Experimental data as given in PMC7175367, “1H-Imidazole-2,5-Dicarboxamides as NS4A Peptidomimetics: Identification of a New Approach to Inhibit HCV-NS3 Protease” (Biomolecules, 2020).
# Where “and” joins values, the source holds several entries; their conditions need not be identical. Equal entries are not always repeated. Entries after “also recorded” stand apart in the source; their conditions may differ.
# Assays:
# [1] = target: T1, NS3 (NS4A21`–33` binding site) (Hepatitis C virus genotype 4a, UniProt O39929); test: Fluorescence anisotropy (FA) competition assay with FITC-NS4A21`–33`; parameters: species or system HCV genotype 4a; conditions: displacement of FITC-NS4A21`–33` (0.10 µM) from NS3, 480/520 nm, compounds 150 to 0.292 µM; for IC50: Competition IC50 ± SEM
# T1 construct: NS3 protease domain 1–181 aa plus an N-terminal T7 tag and C-terminal His tag; made in house; host or cells: E. coli Rosetta (DE3) pLysS, vector pET-3a
# Method: This assay measures the potency by which synthetic peptidomimetics affect the binding of labeled NS4A21`–33`. Before testing the MOC compounds, the binding affinity of fluorescein isothiocyanate NS4A21`–33` (FITC-NS4A21`–33`) was first determined (see Supplementary Material Figure S3) based on our previous work. For this particular protein batch, the optimal ratio to be used in the FA affinity test was calculated to be 0.5 µM NS3 and 0.1 µM FITC-NS4A21`–33`. Compounds that efficiently compete with NS4A21`–33` are expected to decrease the fluorescence emitted from NS3/FITC-4A21-34` mixture.
# In a 96-well plate, we added a place binding buffer (20 mM HEPES, 10 mM DTT, 200 mM NaCl, pH 7.60) and a mixture of NS3 ([…]) and FITC-NS4A (0.10 µM) at the calculated affinity constant concentration. A serial dilution of MOC compounds (dissolved in 1.50% DMSO in binding buffer) (1/2 dilution starting from 150 to 0.292 µM) were mixed gently for 60 min in a dark place and the fluorescence was measured at excitation/emission wavelengths of 480/520 nm. The competition IC50 was calculated according to the recommended equation embedded in GraphPad Prism v. 8.0® and Instat® software.
# NS3 protease = target: T2, NS3 protease (Hepatitis C virus genotype 4a, UniProt O39929); test: Enzyme inhibition assay (SensoLyte 520 HCV Protease Assay Kit, modified); format: biochemical, HCV genotype 4a
# T2 construct: NS3 protease domain 1–181 aa plus an N-terminal T7 tag and C-terminal His tag; made in house; host or cells: E. coli Rosetta (DE3) pLysS, vector pET-3a
# Method: MOC-24 was selected for a qualitative testing for its inhibition of NS3 protease activity. Experiments were carried out using the SensoLyte® 520 HCV Protease Assay Kit. This assay measures the recovered fluorescence emitted upon cleavage of the labeled peptide substrate representing the NS4A/NS4B junction. Considering that NS3 without NS4A is almost a thousand-times less catalytic, the method was modified to suit the purpose of our allosteric inhibition assay. […] As a positive control, an equimolar mixture of NS4A with NS3 (equimolar, 2.00 µM each) caused only a 9-fold increase in the catalytic activity of the enzyme (Figure 5), which was far less than the reported value, possibly due to the large amount of protein used.
# The assay was performed using SensoLyte-520® HCV protease assay kit fluorometric* (Anaspec, Fremont, CA, USA) according to a modified procedure to suit the purpose of determination of allosteric inhibition. NS3 (2.00 µM) was mixed with MOC-24 (4.00 µM) for 15.0 min. Afterwards, 5-FAM/QXL™520 fluorescence resonance energy transfer (FRET) peptide was added as instructed by the assay kit manual. […] In the FRET peptide, the fluorescence of 5-FAM is quenched by QXL™520. Upon cleavage into two separate fragments by HCV NS3/4A protease, the fluorescence of 5-FAM is recovered, and can be monitored at 490 nm/520 nm (excitation/emission). […]
# NS3 domain = target: T3, NS3 domain (Hepatitis C virus genotype 4a, UniProt O39929); test: Differential static light scattering (DSLS) binding test; parameters: species or system HCV genotype 4a; conditions: NS3 domain 15.0 µM with equimolar compound; for ΔTagg (liganded protein − free protein): 25.0 to 85.0 °C, n = 3; for ΔTagg as % of the positive control NS4A21`–33`: relative to NS4A21`–33`
# T3 construct: NS3 protease domain 1–181 aa plus an N-terminal T7 tag and C-terminal His tag; made in house; host or cells: E. coli Rosetta (DE3) pLysS, vector pET-3a
# Method: We studied the binding of MOC compounds with NS3 by differential static light scattering (DSLS). The NS3 domain stability upon binding to NS4A was measured by monitoring denatured protein aggregation upon increasing the temperature gradually from 25.0 to 85.0 °C (0.5 °C increments) at 600 nm. If a ligand binds to the protein, this increases a protein’s aggregation temperature (Tagg). DSLS provides an advantage of being a label-free binding assay technique and ΔTagg (of liganded protein−free protein) can be used to assess relative binding affinities of ligands. For NS3, the ΔTagg values that occurred upon binding of the MOC compounds were measured and compared to that of NS4A21`–33` as a positive control.
# We studied the binding of NS4A and its mutants with NS3 by DSLS using Stargazer-2™ (Harbinger Biotechnology and Engineering Corporation, Toronto, Canada). This method assesses protein stability by monitoring aggregate formation using controlled, gradually elevated temperatures. The NS3 domain stability upon binding to NS4A was measured by monitoring denatured protein aggregation upon increasing the temperature from 25.0 to 85.0 °C (0.5 °C increments) at 600 nm. The Tagg values were calculated automatically from raw data using Stargazer-AIR® software. All experiments were repeated three times using the same batch of NS3 protein.
# The NS3 domain (15.0 µM), alone or mixed with an equimolar equivalent of tested MOC derivative, was added to a binding buffer (20.0 mM HEPES, 10.0 mM DTT, 200 mM NaCl, pH 7.60) to a final volume 100 µL. The mixture was incubated at room temperature with gentle shaking for 2 h. Afterwards, 10 µL of the mixture was transferred into a clear bottomed Nunc 384-well plate and covered by 10 µL paraffin oil to minimize evaporation. Protein aggregation was monitored by tracking the change in scattered light that was detected by a charged coupled device (CCD) camera. Snapshot images of the plate were taken every 0.5 °C. The pixel intensities in a preselected region of each well were integrated using image analysis software to generate a value representative of the total amount of scattered light in that region. These intensities were then plotted against temperature for each sample well and fitted to obtain the aggregation temperature (Tagg). Aggregation was monitored and analyzed to assess the effect of NS4A and its synthetic analogues on the stability of the NS3 as an indicator of binding. Each experiment was repeated three times. Statistical analysis was performed using GraphPad Prism v. 8.0® and Instat® v. 3.10 software.
# [2] = target: HCV NS3 protease domain, genotype 4a (1-181 aa, N-terminal T7 tag, C-terminal His tag) (hepatitis C virus genotype 4a)
Compound,IC50 [1],melting point,ΔTagg (liganded protein − free protein) (NS3 domain),also measured
"CC(C)OCCCCNC(=O)c1ncc(C(=O)NCCCCNC(=N)N)[nH]1 [MOC-30, N^5-(4-Guanidinobutyl)-N^2-(4-isopropoxybutyl)-1H-imidazole-2,5-dicarboxamide]",28.5 ± 8.55 µM,,,
"N=C(N)NCCCCNC(=O)c1cnc(C(=O)NCCCOc2ccccc2)[nH]1 [MOC-29, N^5-(4-Guanidinobutyl)-N^2-(3-phenoxypropyl)-1H-imidazole-2,5-dicarboxamide]",> 100 µM,135 to 138 °C,,
LL-G21SVVIVGRIVLSG33-LL [NS4A],,,,"fold increase in the catalytic activity of the enzyme (NS3 protease; positive control, NS4A equimolar with NS3, 2.00 µM each): 9 fold"
"N=C(N)NCCCCNC(=O)c1cnc(C(=O)NCCOC2CCCCC2)[nH]1 [MOC-26, N^2-(2-(Cyclohexyloxy)ethyl)-N^5-(4-guanidinobutyl)-1H-imidazole-2,5-dicarboxamide]",> 100 µM,,,
"N=C(N)NCCCCNC(=O)c1cnc(C(=O)NCCCOC2CCCCC2)[nH]1 [MOC-27, N^2-(3-(Cyclohexyloxy)propyl)-N^5-(4-guanidinobutyl)-1H-imidazole-2,5-dicarboxamide]",> 100 µM,,,
"CCC(C)CCNC(=O)c1ncc(C(=O)NCCCCNC(=N)N)[nH]1 (centres unmarked) [MOC-32, N^5-(4-guanidinobutyl)-N^2-(3-methylpentyl)-1H-imidazole-2,5-dicarboxamide]",7.7 µM and 7.74 µM,,,
"CCCCCCNC(=O)c1ncc(C(=O)NCc2ccccn2)[nH]1 [MOC-33, N^2-(n-Hexyl)-N^5-(pyridin-2-ylmethyl)-1H-imidazole-2,5-dicarboxamide]",40.3 ± 24 µM,,much weaker binding,Competition IC50 ± SEM [1]: much weaker binding
"NS4A_(21`–33`) peptide, LL-G21…33-LL",,,,"NS3 protease activity (SensoLyte 520 HCV protease assay, 5-FAM/QXL520 FRET peptide); NS3 2.00 µM with NS4A 2.00 µM against NS3 alone [2]: 9 fold"
"CC(C)CCCCCNC(=O)c1ncc(C(=O)NCCCCNC(=N)N)[nH]1 [MOC-31, N^5-(4-Guanidinobutyl)-N^2-(6-methylheptyl)-1H-imidazole-2,5-dicarboxamide]",12.1 ± 1.69 µM,83 to 84 °C,,
"CCCCCNC(=O)c1ncc(C(=O)NCC(=O)NC)[nH]1 [MOC-11, N^5-(2-(Methylamino)-2-oxoethyl)-N^2-(n-pentyl)-1H-imidazole-2,5-dicarboxamide]",17.3 ± 1.22 µM,87 °C,0.82 °C,ΔTagg as % of the positive control NS4A21`–33` (NS3 domain): 54.6%
"N=C(N)NCCCCNC(=O)c1cnc(C(=O)NCCOc2ccccc2)[nH]1 [MOC-28, N^5-(4-Guanidinobutyl)-N^2-(2-phenoxyethyl)-1H-imidazole-2,5-dicarboxamide]",> 100 µM,137 to 139 °C,,
"CCCCCNC(=O)c1ncc(C(=O)NCCCCNC(=N)N)[nH]1 [MOC-23, N^5-(4-Guanidinobutyl)-N^2-(n-pentyl)-1H-imidazole-2,5-dicarboxamide]",4.7 ± 0.327 µM,,0.32 °C,ΔTagg as % of the positive control NS4A21`–33` (NS3 domain): 19.5%
"CCCCCCNC(=O)c1ncc(C(=O)NCCCCNC(=N)N)[nH]1 [MOC-24, N^5-(4-Guanidinobutyl)-N^2-(n-hexyl)-1H-imidazole-2,5-dicarboxamide]",1.9 µM and 1.91 µM,,0.60 °C,"NS3 catalytic activity (NS3 protease; qualitative, NS3 2.00 µM, MOC-24 4.00 µM, 5-FAM/QXL520 FRET peptide): inhibited NS3 protease activity; also recorded: complete loss of NS3 catalytic activity; ΔTagg as % of the positive control NS4A21`–33` (NS3 domain): 39.8% and 40%"
